Results: US20250302798A1, “STING INHIBITORS AND USE THEREOF” (CARMEL HAIFA UNIVERSITY ECONOMIC CORPORATION LTD., priority 2022, published 2025)
“Also recorded” adds a separate entry of the source.

Key:
STING [1] = molecular target: T1, STING (Mus musculus, UniProt Q3TBT3); assay: Cytokine secretion (ELISA) from DMXAA-activated splenocytes; format: cell-based, C57BL/6 mice; design: Splenocytes were recovered from C57BL/6 WT female mice; endogenous in cells; host or cells: primary splenocytes of C57BL/6 mice; conditions: for Mode of action on STING (overall): summary over various cell types, DMXAA stimulation; for STING inhibition (ranking): at 5,000 nM, resting splenocytes
T1 sequence (Q3TBT3 1-378): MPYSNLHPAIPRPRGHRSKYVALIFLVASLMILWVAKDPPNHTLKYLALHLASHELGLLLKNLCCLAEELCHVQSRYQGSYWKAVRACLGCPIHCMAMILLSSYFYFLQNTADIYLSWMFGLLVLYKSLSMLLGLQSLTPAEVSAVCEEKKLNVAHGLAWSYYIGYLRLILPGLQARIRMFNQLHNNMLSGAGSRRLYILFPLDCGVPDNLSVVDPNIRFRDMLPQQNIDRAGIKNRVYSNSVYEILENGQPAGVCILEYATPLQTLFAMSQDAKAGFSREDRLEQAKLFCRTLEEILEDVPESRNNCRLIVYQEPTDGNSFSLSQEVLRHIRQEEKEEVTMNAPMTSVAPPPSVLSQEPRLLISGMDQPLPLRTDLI
Procedure: FIGS. 1A-1B include bar graphs showing that Cluster 1 and 9 inhibit tumor necrosis factor alpha (TNFα) while only cluster 1 promotes IL-10 secretion from resting splenocytes activated by the selective STING agonist DMXAA. Splenocytes were recovered from C57BL/6 WT or STING^−/− female mice and were incubated (1×10^6 cells in 0.5 mL of culture media) overnight with a premade mixture of the individual compounds in each cluster (5-500 nM) or vehicle, and DMXAA (10 μM). Next, culture supernatants were collected and TNFα(1A) or IL-10 (1B) levels were determined by standard enzyme-linked immunosorbent assay ELISA (Biolegend).
(§1) FIGS. 2A-2D include graphs showing that compounds 5.9 and 7.9 inhibit TNFα and IL-10 secretion from DMXAA-activated splenocytes. Splenocytes were recovered from C57BL/6 WT female mice and incubated (1×10^6 cells in 0.5 mL of culture media) overnight with the individual compounds from cluster 9 (50-5,000 nM) or vehicle and DMXAA (5-10 μM; 2A-2B) or at 5,000 nM without DMXAA (2C-2D). Next, culture supernatants were collected and TNFα (2A, and 2C) or IL-10 (2B, and 2D) levels were determined by standard ELISA. In 2A-2B, black horizontal line indicates secretion level from vehicle-treated cells.
FIGS. 3A-3H include graphs and an image showing that compounds 2.1, 4.1, and 6.1 inhibit TNFα but promote IL-10 and IFN-beta secretion from DMXAA-activated splenocytes. Splenocytes were recovered from C57BL/6 WT female mice and incubated (1×10^6 cells in 0.5 mL of culture media) overnight with the individual compounds from cluster 1 (50-5,000 nM) or vehicle and DMXAA (10 μM; 3A, 3C, and 3E) or at 5,000 nM without DMXAA (3B, 3D, and 3F). Next, culture supernatants were collected and TNFα (3A-3B), IL-10 (3C-3D), or IFN-beta (3E-3F) levels were determined by standard ELISA. In 3A, 3C, and 3E, black horizontal line indicates secretion level from vehicle-treated cells. (3G-3H) Biased STING agonists (BiSTs) enhance DMXAA-induced STING signaling. Splenocytes were treated with 25 μg/ml DMXAA and 50 nM of compound 2.1 for 1-4 hr (3G). Then, the cells were analyzed by immunoblotting for phosphorylated STING, TBK-1, IRF3, and NF-kB, or their unphosphorylated controls, or actin as a loading control. Densitometry analysis for phosphorylated STING (p-STING) and STING proteins (3H) is also shown. Results are representative (3G) or mean±SEM (3H) from 3 repeats. One-way ANOVA, and Tukey HSD test *P<0.05.
(§2) Splenocytes were isolated from the spleens of unchallenged C57BL/6 WT or STING-KO mice by meshing against a grid. Peritoneal macrophages were isolated from mice undergoing peritonitis for 66 hr by washing with 5 ml PBS. The cellular exudate was stained with phycoerythrin (PE)-conjugated anti-F4/80 antibodies (bioLegend, CA, USA) and macrophages were isolated using magnetic beads (STEMCELL Technologies Inc, Vancouver, Canada). Isolated splenocytes or macrophages (0.5-1×10^6 cells per well) were incubated with 50-5,000 nM of individual substances or pooled clusters thereof. Then, the cells were treated with vehicle or 5-10 μM DMXAA (Cayman Chemical, MI, USA) to activate STING. After 24 hr, culture supernatants were collected and evaluated for levels of: TNFα, IFN-β and/or IL-10 using, standard ELISA (BioLegend, CA, USA).
To test which cluster(s) included compounds that modulate STING-mediated cytokine production, wild-type (WT) or STING knockout (−/−) splenocytes were incubated with the selective murine STING agonist DMXAA alone or with 5-500 nM of the pooled individual compounds in each cluster as indicated.
Next, the individual compounds in clusters 1 and 9 were tested at 50-5,000 nM. The first experiment was performed in resting splenocytes as detailed above.

STING [2] = molecular target: T1, STING; assay: Cytokine secretion (ELISA) from DMXAA-activated resolution phase macrophages (zymosan A peritonitis); format: cell-based, mice; design: Mice were injected with zymosan A (1 mg/mouse), and peritoneal cells thereof were recovered after 66 hrs; endogenous in cells; host or cells: F4/80+ peritoneal exudate macrophages from mice with zymosan A peritonitis; conditions: for IL-10 secretion / TNFα secretion: individual compounds 50-5,000 nM + DMXAA 5-10 μM; for Mode of action in resolution phase macrophages: summary heading; for TNFα induced by DMXAA: at 5000 nM
Procedure: Mice were injected with zymosan A (1 mg/mouse), and peritoneal cells thereof were recovered after 66 hrs. Exudate macrophages were isolated and incubated (1×10^6 cells in 0.5 mL of culture media) overnight with a premade mixture of the individual compounds in clusters 1 and 9 (5,000 nM; 5A and 5C), or the individual compounds (500-5,000 nM), or vehicle and DMXAA (5-10 μM). Next, culture supernatants were collected and TNFα (5A-5B) or IL-10 (5C-5D) levels were determined by standard ELISA (Biolegend).
as §2
To use a more physiological setting, macrophages were isolated from zymosan A-induced peritonitis and treated with the compounds alone (5,000 nM) or compounds (50-5,000 nM) with DMXAA, or DMXAA alone.

STING [3] = molecular target: T1, STING; assay: Cytokine secretion (ELISA) from splenocytes without DMXAA; format: cell-based, C57BL/6 mice; design: Splenocytes were recovered from C57BL/6 WT female mice; endogenous in cells; host or cells: primary splenocytes of C57BL/6 mice; conditions: 5,000 nM
Procedure: as §1
FIGS. 3A-3H include graphs and an image showing that compounds 2.1, 4.1, and 6.1 inhibit TNFα but promote IL-10 and IFN-beta secretion from DMXAA-activated splenocytes. […] Next, culture supernatants were collected and TNFα (3A-3B), IL-10 (3C-3D), or IFN-beta (3E-3F) levels were determined by standard ELISA. […] Then, the cells were analyzed by immunoblotting for phosphorylated STING, TBK-1, IRF3, and NF-kB, or their unphosphorylated controls, or actin as a loading control. […]
Splenocytes were isolated from the spleens of unchallenged C57BL/6 WT or STING-KO mice by meshing against a grid. […] After 24 hr, culture supernatants were collected and evaluated for levels of: TNFα, IFN-β and/or IL-10 using, standard ELISA (BioLegend, CA, USA). […]

[4] = tested on: LPS-activated splenocytes; assay: Cytokine secretion (ELISA) from LPS-activated splenocytes; format: cell-based, C57BL/6 mice; conditions: for LPS-induced cytokine secretion / IFN-beta secretion / IL-10 secretion / TNFα secretion: 5,000 nM + LPS 1 μg/ml; for IFN-beta secretion / IL-10 secretion / TNFα secretion: overnight
Procedure: FIGS. 4A-4C include vertical bar graphs showing that compounds 5.9 and 7.9 inhibit TNFα but promote IL-10 and IFN-beta secretion from lipopolysaccharides (LPS)-activated splenocytes. Splenocytes were recovered from C57BL/6 WT female mice and incubated (1×10^6 cells in 0.5 mL of culture media) overnight with the individual compounds from cluster 9 (5,000 nM) or vehicle and LPS (1 μg/ml). Next, culture supernatants were collected and TNFα (4A), IL-10 (4B), or IFN-beta (4C) levels were determined by standard ELISA.
STING was previously shown to be essential for LPS-induced IRF3 activation and IFN-β production. Therefore, further examination of whether the putative STING antagonists affect LPS-induced cytokine production was carried out.

[5] = individual compounds 50-5,000 nM + DMXAA 5-10 μM, overnight

With `c1ccc(-n2cccc2CN(Cc2cccnc2)Cc2ccc3c(c2)OCO3)nc1` [Compound 4.1, (1,3-benzodioxol-5-ylmethyl)(pyridin-3-ylmethyl)[(1-pyridin-2-yl-1H-pyrrol-2-yl)methyl]amine] the IFN-beta secretion (STING [1]; individual compounds 50-5,000 nM + DMXAA 10 μM, overnight) was “promote”, the IL-10 secretion (STING [1]; [5]) was “induced IL-10 at all concentrations; also recorded: promote” and the TNFα secretion (STING [1]; [5]) was “inhibit”. For the same compound, the IL-10 secretion (STING [1]; individual compounds at 5,000 nM + DMXAA) was “induces”, the “Mode of action on STING (overall)” value (STING [1]) was “biased agonists; also recorded: most efficient biased agonist” and the “IL-10 induced by DMXAA” value (STING [2]; at 500 nM) was “enhanced”. The “IL-10 induced by DMXAA” value (STING [2]; at 5,000 nM) was “not”, the IL-10 secretion (STING [2]) was “selective inducer” and the “Mode of action in resolution phase macrophages” value (STING [2]) was “Biased Antagonist for TNFα”. For the same compound, the IL-10 secretion (STING [3]; without DMXAA) was “only compound that induced IL-10; also recorded: induces”.

`CCOC(=O)N1CCC(NCc2cc3ccc(Cl)cc3n(CCOc3ccccc3)c2=O)CC1` [Compound 6.9, ethyl 4-({[7-chloro-2-oxo-1-(2-phenoxyethyl)-1,2-dihydro-3-quinolinyl]methyl}amino)-1-piperidinecarboxylate] was tested, and the LPS-induced cytokine secretion [4] was “much milder effects”.

For `COc1ccccc1CCN1CCCC(CN(C)C(=O)Cc2cn(C)c3ccccc23)C1` (stereo not shown) [Compound 4.9], the “STING inhibition (ranking)” value (STING [1]) was “Best STING Inhibitors” and the TNFα secretion (STING [1]; [5]) was “doing so at lower concentrations”.

In the case of `Cc1ccc(C(=O)Nc2cnn(-c3ccc(C(=O)N4CCC(c5ccc(F)cc5)C4)cc3)c2)c(C)c1` (stereo not shown) [Compound 6.1, N-[1-(4-{[3-(4-fluorophenyl)-1-pyrrolidinyl]carbonyl}phenyl)-1H-pyrazol-4-yl]-2,4-dimethylbenzamide], the “STING inhibition (ranking)” value (STING [1]) is reported as “Best STING Inhibitors”, the TNFα secretion (STING [1]; [5]) is reported as “doing so at lower concentrations; also recorded: inhibit” and the “Mode of action on STING (overall)” value (STING [1]) is reported as “biased agonists”. For the same compound, the “IL-10 induced by DMXAA” value (STING [2]; at 5,000 nM) was “enhanced” and the “TNFα induced by DMXAA” value (STING [2]) was “enhanced”.

For `Cc1ccc2c(-c3cc4c(n(CC5CC5)c3=O)CCN(C(=O)C3=NN(C)C(=O)CC3)C4)cccc2n1` [Compound 5.9, 1-(cyclopropylmethyl)-6-[(1-methyl-6-oxo-1,4,5,6-tetrahydro-3-pyridazinyl)carbonyl]-3-(2-methyl-5-quinolinyl)-5,6,7,8-tetrahydro-1,6-naphthyridin-2(1H)-one], the “STING inhibition (ranking)” value (STING [1]) was “Best STING Inhibitors”, the IL-10 secretion (STING [1]; [5]) was “inhibit” and the TNFα secretion (STING [1]; [5]) was “doing so at lower concentrations; also recorded: best inhibitor; also recorded: inhibit”. The “Mode of action on STING (overall)” value (STING [1]) was “very efficient STING inhibitors”, the “IL-10 induced by DMXAA” value (STING [2]; at 5,000 nM) was “enhanced” and the “TNFα induced by DMXAA” value (STING [2]) was “enhanced”. The IFN-beta secretion [4] was “enhances; also recorded: significant upregulation; also recorded: promote”, the IL-10 secretion [4] was “enhances; also recorded: significant upregulation; also recorded: promote” and the TNFα secretion [4] was “not and reducing and inhibiting and inhibit”. The “Mode of action in LPS-stimulated splenocytes” value ([4]; summary statement) was “biased agonist” and the TNFα secretion (STING [3]; absence of DMXAA stimulation) was “inhibited”.

In the case of `COCC(=O)N(C)C(Cc1ccc(F)cc1)C1CCN(C(=O)c2ccc(-c3ccccc3)cc2)CC1` (stereo not shown) [Compound 3.1, N-[1-[1-(4-biphenylylcarbonyl)-4-piperidinyl]-2-(4-fluorophenyl)ethyl]-2-methoxy-N-methylacetamide], the TNFα secretion (STING [2]) is reported as “enhanced TNFα only”.

`O=C(CCc1c[nH]c2ccccc12)N1CCOc2ccc(CN3CCN(c4ccccn4)CC3)cc2C1` [Compound 7.9, 4-[3-(1H-indol-3-yl)propanoyl]-7-{[4-(2-pyridinyl)-1-piperazinyl]methyl}-2,3,4,5-tetrahydro-1,4-benzoxazepine] was tested, and the IL-10 secretion (STING [1]; [5]) was “inhibit”, the TNFα secretion (STING [1]; [5]) was “inhibit” and the “Mode of action on STING (overall)” value (STING [1]) was “very efficient STING inhibitors”. The IL-10 secretion (STING [2]) was “best inhibitor; also recorded: inhibits”, the TNFα secretion (STING [2]) was “best inhibitor; also recorded: inhibits” and the “Mode of action in resolution phase macrophages” value (STING [2]) was “Very Efficient STING Inhibitor”. For the same compound, the LPS-induced cytokine secretion [4] was “much milder effects”, the IFN-beta secretion [4] was “promote” and the IL-10 secretion [4] was “promote”. The TNFα secretion [4] was “inhibit”.
